Compound `Nc1ccc([N+](=O)[O-])cc1[N+](=O)[O-]` [2,4-dinitroaniline] had a flash point of 224.00 °C.

Compound `CC(C)(C)OOC(C)(C)CCC(C)(C)OOC(C)(C)C` [2,5-bis(tert-butylperoxy)-2,5-dimethylhexane] came in with a flash point of 85.00 °C.

`O=S1(=O)CC=CC1` [2,5-dihydrothiophene 1,1-dioxide] returned a flash point of 113.00 °C.

The compound `CC1COC(C)CO1` (stereo not given) [2,5-dimethyl-1,4-dioxane] displayed a flash point of 24.00 °C.

As to `Cc1ccc(C)c(N)c1` [2,5-dimethylaniline], the flash point came out at 94.00 °C.

Take `CC1=CCC2CC1C2(C)C` (stereo not given) [2,6,6-trimethylbicyclo[3.1.1]hept-2-ene]: the flash point was 33.00 °C.

Consider `Cc1cccc(C)c1N` [2,6-dimethylaniline], for which the flash point amounted to 91.00 °C.

Compound `CC(C)=CC(=O)C=C(C)C` [2,6-dimethylhepta-2,5-dien-4-one] returned a flash point of 85.00 °C.

For `CC(C)CC(O)CC(C)C` [2,6-dimethylheptan-4-ol], the flash point stood at 74.00 °C.

The compound `CC1CNCC(C)O1` (stereo not given) [2,6-dimethylmorpholine] returned a flash point of 44.00 °C.

`Cc1cccc(C)c1O` [2,6-dimethylphenol] showed a flash point of 74.00 °C.

Consider `Cc1cc(C(C)(C)C)c(O)c(C(C)(C)C)c1` [2,6-ditert-butyl-4-methylphenol], for which the flash point was found to be 127.00 °C.

Compound `c1ccc2sc(SSc3nc4ccccc4s3)nc2c1` [2-(1,3-benzothiazol-2-yldisulfanyl)-1,3-benzothiazole] yielded a flash point of 270.00 °C.

As for `NCCOCCO` [2-(2-aminoethoxy)ethanol], the flash point was 127.00 °C.

In turn, `NCCNCCO` [2-(2-aminoethylamino)ethanol] had a flash point of 102.00 °C.

The compound `O=C(OCCOCCOC(=O)c1ccccc1)c1ccccc1` [2-(2-benzoyloxyethoxy)ethyl benzoate] showed a flash point of 232.00 °C.

The compound `CCCCOCCOCCO` [2-(2-butoxyethoxy)ethanol] returned a flash point of 78.00 °C.

Compound `CCCCOCCOCCOC(C)=O` [2-(2-butoxyethoxy)ethyl acetate] had a flash point of 116.00 °C.

With `CCOCCOCCO` [2-(2-ethoxyethoxy)ethanol], the flash point is 96.00 °C.

In turn, `CCCCC(CC)COCC1CO1` (stereo not given) [2-(2-ethylhexoxymethyl)oxirane] displayed a flash point of 97.00 °C.

`COCCOCCO` [2-(2-methoxyethoxy)ethanol] gave a flash point of 93.00 °C.

Compound `COC(C)COC(C)CO` (stereo not given) [2-(2-methoxypropoxy)propan-1-ol] yielded a flash point of 74.00 °C.

On to `COC(C)COC(C)COC(C)=O` (stereo not given) [2-(2-methoxypropoxy)propyl acetate], for which the flash point was determined as 86.00 °C.

In turn, `C=C(C)C(=O)OCCOC(=O)C(=C)C` [2-(2-methylprop-2-enoyloxy)ethyl 2-methylprop-2-enoate] returned a flash point of 101.00 °C.

In turn, `C=CC(=O)OCCOCCOC(=O)C=C` [2-(2-prop-2-enoyloxyethoxy)ethyl prop-2-enoate] showed a flash point of 78.00 °C.

In the case of `Cc1ccc(C(C)(C)O)cc1` [2-(4-methylphenyl)propan-2-ol], the flash point was 96.00 °C.

In turn, `BrCC1CO1` (stereo not given) [2-(bromomethyl)oxirane] gave a flash point of 56.00 °C.

Compound `ClCC1CO1` (stereo not given) [2-(chloromethyl)oxirane] yielded a flash point of 34.00 °C.

With `C=CC(=O)OCCN(C)C` [2-(dimethylamino)ethyl prop-2-enoate], the flash point was 29.00 °C.

In the case of `FCC1CO1` (stereo not given) [2-(fluoromethyl)oxirane], the flash point was 4.00 °C.

With `C=CCOCC1CO1` (stereo not given) [2-(prop-2-enoxymethyl)oxirane], the flash point was 57.00 °C.

`CCCCOC(=O)c1ccccc1C(=O)OCc1ccccc1` [2-O-benzyl 1-O-butyl benzene-1,2-dicarboxylate] displayed a flash point of 199.00 °C.

The compound `COCC(C)OCC(C)OC(C)CO` (stereo not given) [2-[1-(1-methoxypropan-2-yloxy)propan-2-yloxy]propan-1-ol] came in with a flash point of 121.00 °C.

Regarding `CC(COc1ccc(Oc2ccccc2)cc1)Oc1ccccn1` (stereo not given) [2-[1-(4-phenoxyphenoxy)propan-2-yloxy]pyridine], the flash point was found to be 119.00 °C.

In turn, `CC(=O)OCCOCCOCCOC(C)=O` [2-[2-(2-acetyloxyethoxy)ethoxy]ethyl acetate] returned a flash point of 174.00 °C.

`CCCCOCCOCCOCCO` [2-[2-(2-butoxyethoxy)ethoxy]ethanol] yielded a flash point of 143.00 °C.

In turn, `COC(C)COC(C)COC(C)CO` (stereo not given) [2-[2-(2-methoxypropoxy)propoxy]propan-1-ol] displayed a flash point of 111.00 °C.

For the compound `COC(O)COCCOCCOCCO` (stereo not given) [2-[2-[2-(2-hydroxyethoxy)ethoxy]ethoxy]-1-methoxyethanol], the flash point amounted to 161.00 °C.

Consider `CC(C)(C)c1ccc(OCC2CO2)cc1` (stereo not given) [2-[(4-tert-butylphenoxy)methyl]oxirane], for which the flash point is 102.00 °C.

On to `OCCN(CCO)CCO` [2-[bis(2-hydroxyethyl)amino]ethanol], for which the flash point was determined as 185.00 °C.

Take `CCOP(=O)(SC(C)CC)SC(C)CC` (stereo not given) [2-[butan-2-ylsulfanyl(ethoxy)phosphoryl]sulfanylbutane]: the flash point was 129.00 °C.

`CCN(CCO)CCO` [2-[ethyl(2-hydroxyethyl)amino]ethanol] returned a flash point of 98.00 °C.

Compound `CC(=O)OCCOC(C)=O` [2-acetyloxyethyl acetate] gave a flash point of 96.00 °C.

`CC(C)(N)CO` [2-amino-2-methylpropan-1-ol] yielded a flash point of 67.00 °C.

Regarding `Nc1cc(Cl)ccc1O` [2-amino-4-chlorophenol], the flash point was found to be 170.00 °C.

Regarding `Nc1ccc2c(c1)C(=O)c1ccccc1C2=O` [2-aminoanthracene-9,10-dione], the flash point turned out to be 283.00 °C.

As for `CC(N)CO` (stereo not given) [2-aminopropan-1-ol], the flash point stood at 63.00 °C.

`O=C1OC(=O)c2ccccc21` [2-benzofuran-1,3-dione] returned a flash point of 152.00 °C.

In turn, `OCCBr` [2-bromoethanol] had a flash point of 41.00 °C.

`Oc1ccccc1Br` [2-bromophenol] had a flash point of 42.00 °C.

As for `CCC(C)c1ccccc1O` (stereo not given) [2-butan-2-ylphenol], the flash point is 112.00 °C.

As for `CCCCOCCO` [2-butoxyethanol], the flash point is 61.00 °C.

Take `Nc1ccc([N+](=O)[O-])cc1Cl` [2-chloro-4-nitroaniline]: the flash point is 205.00 °C.

In the case of `Clc1cccc(C(Cl)(Cl)Cl)n1` [2-chloro-6-(trichloromethyl)pyridine], the flash point came to 100.00 °C.

On to `CCc1cccc(CC)c1N(COC)C(=O)CCl` [2-chloro-N-(2,6-diethylphenyl)-N-(methoxymethyl)acetamide], for which the flash point is 137.00 °C.

In turn, `O=CCCl` [2-chloroacetaldehyde] showed a flash point of 88.00 °C.

Consider `NC(=O)CCl` [2-chloroacetamide], for which the flash point was 170.00 °C.

As to `N#CCCl` [2-chloroacetonitrile], the flash point was determined as 48.00 °C.

Compound `O=C(Cl)CCl` [2-chloroacetyl chloride] came in with a flash point of 100.00 °C.

As to `O=Cc1ccccc1Cl` [2-chlorobenzaldehyde], the flash point came out at 88.00 °C.

Regarding `C=CC(=C)Cl` [2-chlorobuta-1,3-diene], the flash point is -20.00 °C.

With `OCCCl` [2-chloroethanol], the flash point was 60.00 °C.

The compound `ClC=Cc1ccccc1` [2-chloroethenylbenzene] displayed a flash point of 58.00 °C.

As for `Clc1ccc2ccccc2c1` [2-chloronaphthalene], the flash point stood at 125.00 °C.

`Oc1ccccc1Cl` [2-chlorophenol] returned a flash point of 64.00 °C.

For the compound `CC(Cl)CO` (stereo not given) [2-chloropropan-1-ol], the flash point was determined as 52.00 °C.

Compound `CCCCCCCCCCCCc1ccccc1S(=O)(=O)O` [2-dodecylbenzenesulfonic acid] displayed a flash point of 149.00 °C.

In the case of `C=Cc1ccccn1` [2-ethenylpyridine], the flash point is 42.00 °C.

On to `CCOC1CCC=CO1` (stereo not given) [2-ethoxy-3,4-dihydro-2H-pyran], for which the flash point is 37.00 °C.

`CCOCCOC(C)=O` [2-ethoxyethyl acetate] yielded a flash point of 57.00 °C.

For the compound `CCc1cccc(C)c1N` [2-ethyl-6-methylaniline], the flash point was found to be 102.00 °C.

Regarding `CCCCC(CC)CNCC(CC)CCCC` (stereo not given) [2-ethyl-N-(2-ethylhexyl)hexan-1-amine], the flash point turned out to be 132.00 °C.

`CCC(C=O)CC` [2-ethylbutanal]: the flash point turned out to be 21.00 °C.

On to `CCC(CC)COC(C)=O` [2-ethylbutyl acetate], for which the flash point was 54.00 °C.

In the case of `CCCCC(CC)CN` (stereo not given) [2-ethylhexan-1-amine], the flash point worked out at 60.00 °C.

`CCCCC(CC)CO` (stereo not given) [2-ethylhexan-1-ol] gave a flash point of 81.00 °C.

`CCCCC(C=O)CC` (stereo not given) [2-ethylhexanal] gave a flash point of 52.00 °C.

`CCCC(O)C(CC)CO` (stereo not given) [2-ethylhexane-1,3-diol] had a flash point of 127.00 °C.

`CCCCC(CC)C(=O)O` (stereo not given) [2-ethylhexanoic acid] showed a flash point of 127.00 °C.

Turning to `CCCCC(CC)COC(=O)COc1ccc(Cl)cc1Cl` (stereo not given) [2-ethylhexyl 2-(2,4-dichlorophenoxy)acetate], the flash point was 171.00 °C.

The compound `CCCCC(CC)COP(=O)(Oc1ccccc1)Oc1ccccc1` (stereo not given) [2-ethylhexyl diphenyl phosphate] registered a flash point of 224.00 °C.

With `C=CC(=O)OCC(CC)CCCC` (stereo not given) [2-ethylhexyl prop-2-enoate], the flash point came out at 82.00 °C.

`CCC1CO1` (stereo not given) [2-ethyloxirane] displayed a flash point of -12.00 °C.

Turning to `Nc1ccccc1F` [2-fluoroaniline], the flash point is 60.00 °C.

With `CCCCCCOCCO` [2-hexoxyethanol], the flash point worked out at 91.00 °C.

These data come from a flash point compilation (Sun et al. 2020).
